Test results as given in patent US12630498B2 (Genzyme Corporation, priority 2019, dated 2026).
pEC50: −log10 of the molar value.

What was measured:
[1] = target: T1, CFTR-mediated transepithelial chloride transport in primary human bronchial epithelial cells from a ΔF508 homozygous CF donor (Homo sapiens, UniProt P13569, DEL508-508); test: TECC24 recording of CFTR-mediated transepithelial chloride transport in CF-HBE cells (AUC fold over DMSO); assay type: cell-based; details: test agent 10 μM, 48 hours incubation, AUC of forskolin-stimulated IEQ relative to DMSO
T1 construct: Primary human bronchial epithelial cells from a ΔF508 homozygous CF donor; host or cells: primary CF-HBE cells, ΔF508 homozygous donor
Procedure: Example 316: TECC24 AUC Fold Over DMSO @ 10 uM
The effects of a test agent on CFTR-mediated transepithelial chloride transport was measured using TECC24 recording analysis. Test agents were solubilized in DMSO. Solubilized test agents were mixed with incubation medium containing DMEM/F12, Ultroser G (2%; Crescent Chemical, catalog #67042), Hyclone Fetal Clone II (2%; GE Healthcare, catalog #SH30066.02), bovine brain extract (0.25%; Lonza, catalog #CC-4098), insulin (2.5 μg/mL), IL-13 (10 ng/mL), hydrocortisone (20 nM), transferrin (2.5 μg/mL), triiodothyronine (500 nM), ethanolamine (250 nM), epinephrine (1.5 μM), phosphoethanolamine (250 nM), and retinoic acid (10 nM). Primary human bronchial epithelial cells from a ΔF508 homozygous CF donor (CF-HBE cells; from University of North Carolina Cystic Fibrosis Tissue Procurement Center), grown on Transwell HTS 24-well cell culture inserts (Costar, catalog #3378), were exposed to test agents or controls dissolved in incubation medium. The CF-HBE cells were cultured at 36.5° C. for 48 hours before TECC24 recordings were performed in the presence or absence of test agent, a positive control or vehicle (DMSO).
Following incubation, the transwell cell culture inserts containing the test agent or control-treated CF-HBE cells were loaded onto a TECC24 apparatus (TECC v7 or MTECC v2; EP Design) to record the transepithelial voltage (VT) and resistance (TEER) using 4 AgCl electrodes per well configured in current-clamp mode. The apical and basolateral bath solutions both contained (in mM) 140 NaCl, 5 KCl, 2 CaCl2), 1 MgCl2, 10 Hepes, and 10 glucose (adjusted to pH 7.4 with NaOH). To inhibit basal Na+ absorption, the ENaC inhibitor benzamil (10 μM) was added to the bath. Then, the adenylate cyclase activator, forskolin (10 μM), was added to the bath to activate CFTR. The forskolin-stimulated Cl-transport was halted by addition of CFTR inhibitor-172 (20 μM) to the bath at the end of the experiment to confirm specificity. VT and TEER recordings were digitally acquired at routine intervals using TECC or MTECC software (EP Design). VT and TEER were transformed into equivalent transepithelial Cl-current (IEQ), and the Area Under the Curve (AUC) of the IEQ time course between forskolin and CFTR inhibitor-172 addition was generated using Excel (Microsoft). Efficacy is expressed as the ratio of the test agent AUC divided by vehicle AUC. EC50s based on AUC are generated using the non-linear regression log(agonist) vs. response function in Prism software (GraphPad) with Hill Slope fixed=1.
If a test agent increased the AUC of the forskolin-stimulated IEQ relative to vehicle in CF-HBE cells, and this increase was inhibited by CFTR inhibitor-172, then the test agent was considered a CFTR corrector.

[2] = target: T2, human Cystic Fibrosis Transmembrane Conductance Regulator (CFTR) harboring the ΔF508 mutation (Homo sapiens, UniProt P13569, DEL508-508); test: H441 cell ΔF508-CFTR-HRP cell surface assay (Emax and EC50); assay type: cell-based; details: for Emax: NCI-H441, NA = Not active
T2 construct: expressed in transfected cells; host or cells: H441 carcinoma line (G418-selected)
Method in brief: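 H441 and 41o- bronchial epithelial cells expressing ΔF508-CFTR with an extracellular-loop-4 HRP tag were treated with a 15-point compound series (24.5–0.001 μM) for two nights, H441 at 27° C, 41o- at 37° C with 0.0005 mg/ml doxycycline. Surface HRP luminescence read; % of maximum VX809 signal and EC50 derived.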

T1 sequence (P13569 with tags, fused parts or gaps DEL508-508): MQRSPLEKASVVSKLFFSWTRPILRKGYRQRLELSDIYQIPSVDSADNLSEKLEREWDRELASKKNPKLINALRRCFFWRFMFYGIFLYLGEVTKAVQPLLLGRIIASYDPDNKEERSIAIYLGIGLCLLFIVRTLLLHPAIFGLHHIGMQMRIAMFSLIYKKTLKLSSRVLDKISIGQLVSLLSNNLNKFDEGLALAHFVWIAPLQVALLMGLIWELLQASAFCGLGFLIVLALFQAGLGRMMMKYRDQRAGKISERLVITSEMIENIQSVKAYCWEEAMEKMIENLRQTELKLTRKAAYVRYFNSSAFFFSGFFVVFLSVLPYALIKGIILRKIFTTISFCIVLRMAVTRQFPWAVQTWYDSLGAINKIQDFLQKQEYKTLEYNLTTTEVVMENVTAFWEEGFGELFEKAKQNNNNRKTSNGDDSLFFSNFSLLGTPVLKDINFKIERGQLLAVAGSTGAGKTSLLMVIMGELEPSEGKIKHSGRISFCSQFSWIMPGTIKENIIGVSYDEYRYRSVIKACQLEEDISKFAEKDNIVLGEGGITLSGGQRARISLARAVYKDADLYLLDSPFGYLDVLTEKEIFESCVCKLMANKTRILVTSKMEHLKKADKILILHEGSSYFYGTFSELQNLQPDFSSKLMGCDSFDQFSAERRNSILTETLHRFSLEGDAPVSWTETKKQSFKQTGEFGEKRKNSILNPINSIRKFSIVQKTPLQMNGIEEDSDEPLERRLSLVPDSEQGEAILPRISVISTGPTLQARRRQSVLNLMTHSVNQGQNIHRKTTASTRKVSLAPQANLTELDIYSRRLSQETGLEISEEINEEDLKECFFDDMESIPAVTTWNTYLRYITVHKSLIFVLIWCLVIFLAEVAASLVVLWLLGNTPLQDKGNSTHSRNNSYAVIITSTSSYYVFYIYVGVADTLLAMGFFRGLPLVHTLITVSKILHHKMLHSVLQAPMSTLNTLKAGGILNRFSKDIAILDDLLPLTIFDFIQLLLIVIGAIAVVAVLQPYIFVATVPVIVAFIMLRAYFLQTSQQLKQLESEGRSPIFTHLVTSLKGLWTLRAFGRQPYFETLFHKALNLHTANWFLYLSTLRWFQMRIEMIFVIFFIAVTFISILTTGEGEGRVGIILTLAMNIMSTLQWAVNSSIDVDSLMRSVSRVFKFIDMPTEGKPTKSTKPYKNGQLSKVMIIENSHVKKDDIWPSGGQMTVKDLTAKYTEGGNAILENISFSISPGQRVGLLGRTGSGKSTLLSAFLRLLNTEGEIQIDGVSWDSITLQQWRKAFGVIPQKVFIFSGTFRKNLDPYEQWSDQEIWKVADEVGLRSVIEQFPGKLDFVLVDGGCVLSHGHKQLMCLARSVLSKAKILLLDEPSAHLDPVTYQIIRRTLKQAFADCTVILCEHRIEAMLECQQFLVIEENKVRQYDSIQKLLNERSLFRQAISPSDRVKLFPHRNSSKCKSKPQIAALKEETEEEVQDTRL
T2 sequence (P13569 with tags, fused parts or gaps DEL508-508): as above

## CC(C)(C)[C@H](NC(=O)c1ccc2cc(F)ccc2c1OCc1ccc(C(F)(F)F)cc1)C(=O)O [Example 27, (S)-2-(6-fluoro-1-((4-(trifluoromethyl)benzyl)oxy)-2-naphthamido)-3,3-dimethylbutanoic Acid]
[1]
  TECC24 AUC fold over DMSO @10 μM: B (“B” refers to AUC @10 uM between 4-6)
[2]
  pEC50: 6.22
  Emax: 134%

## CC(C)(C)C[C@H](NC(=O)c1ccc2ccccc2c1OCc1ccc(S(F)(F)(F)(F)F)cc1)C(=O)O [Example 110, (S)-4,4-dimethyl-2-(1-((4-(pentafluoro-16-sulfanyl)benzyl)oxy)-2-naphthamido)pentanoic Acid]
[1]
  TECC24 AUC fold over DMSO @10 μM: B (“B” refers to AUC @10 uM between 4-6)
[2]
  pEC50: 5.68
  Emax: 83.1%

## CCCC(C)(CC)[C@H](NC(=O)c1ccc2ccc(F)cc2c1OCc1ccc(C(F)(F)F)cc1)C(=O)O (stereo partly drawn) [Example 291, (2S)-3-ethyl-2-(7-fluoro-1-((4-(trifluoromethyl)benzyl)oxy)-2-naphthamido)-3-methylhexanoic Acid]
[1]
  TECC24 AUC fold over DMSO @10 μM: A (“A” refers to AUC @10 uM >6)
[2]
  pEC50: 6.40
  Emax: 260%

## CC(C)(C)C[C@H](NC(=O)c1ccc2ccccc2c1OCc1nc2ccccc2s1)C(=O)O [Example 214, (S)-2-(1-(benzo[d]thiazol-2-ylmethoxy)-2-naphthamido)-4,4-dimethylpentanoic Acid]
[1]
  TECC24 AUC fold over DMSO @10 μM: C (“C” refers to AUC @10 uM <4)
[2]
  pEC50: 5.47
  Emax: 112%

## CC(C)(C)[C@H](NC(=O)c1ccc2ccccc2c1OCc1ccc(Cl)c(Cl)c1)C(=O)O [Example 47, (S)-2-(1-((3,4-dichlorobenzyl)oxy)-2-naphthamido)-3,3-dimethylbutanoic Acid]
[1]
  TECC24 AUC fold over DMSO @10 μM: C (“C” refers to AUC @10 uM <4)
[2]
  pEC50: 6.05
  Emax: 117%

## O=C(N[C@H](C(=O)O)C(c1ccccc1)c1ccccc1)c1ccc2ccccc2c1OCc1ccc(C(F)(F)F)cc1 [Example 126, (S)-3,3-diphenyl-2-(1-((4-(trifluoromethyl)benzyl)oxy)-2-naphthamido)propanoic Acid]
[1]
  TECC24 AUC fold over DMSO @10 μM: B (“B” refers to AUC @10 uM between 4-6)
[2]
  pEC50: 7.00
  Emax: 214%

## CC(C)(c1ccccc1)[C@H](NC(=O)c1ccc2ccccc2c1OCc1ccc(C(F)(F)F)cc1)C(=O)O [Example 9, (S)-3-methyl-3-phenyl-2-(1-((4-(trifluoromethyl)benzyl)oxy)-2-naphthamido)butanoic Acid]
[1]
  TECC24 AUC fold over DMSO @10 μM: C (“C” refers to AUC @10 uM <4)
[2]
  pEC50: 5.96
  Emax: 88.4%

## CC1(C(NC(=O)c2ccc3ccccc3c2OCc2ccc(S(F)(F)(F)(F)F)cc2)C(=O)O)CC1 (stereo not drawn) [Example 68, 2-(1-methylcyclopropyl)-2-(1-((4-(pentafluoro-l6-sulfanyl)benzyl)oxy)-2-naphthamido)acetic Acid]
[1]
  TECC24 AUC fold over DMSO @10 μM: C (“C” refers to AUC @10 uM <4)
[2]
  pEC50: 5.72
  Emax: 104%

## Cc1cc2c(OCc3ccc(C(F)(F)F)cc3)c(C(=O)N[C@H](C(=O)O)C(C)(C)C)ccc2cc1F [Example 278, (S)-2-(6-fluoro-7-methyl-1-((4-(trifluoromethyl)benzyl)oxy)-2-naphthamido)-3,3-dimethylbutanoic Acid]
[1]
  TECC24 AUC fold over DMSO @10 μM: A (“A” refers to AUC @10 uM >6)
[2]
  pEC50: 6.70
  Emax: 248%

## CC(C)(C)[C@H](NC(=O)c1ccc2ccc(C(F)F)cc2c1OCc1ccc(OC(F)(F)F)cc1)C(=O)O [Example 245, (2S)-2-[[7-(difluoromethyl)-1-[[4-(trifluoromethoxy)phenyl]methoxy]naphthalene-2-carbonyl]amino]-3,3-dimethyl-butanoic Acid]
[1]
  TECC24 AUC fold over DMSO @10 μM: A (“A” refers to AUC @10 uM >6)
[2]
  pEC50: 7.00
  Emax: 284%

## O=C(NC(C(=O)O)C1(C(F)(F)F)CC1)c1ccc2ccc(Cl)cc2c1OCc1ccc(OC(F)(F)F)cc1 (stereo not drawn) [Example 238, 2-(7-chloro-1-((4-(trifluoromethoxy)benzyl)oxy)-2-naphthamido)-2-(1-(trifluoromethyl)cyclopropyl)acetic Acid]
[1]
  TECC24 AUC fold over DMSO @10 μM: C (“C” refers to AUC @10 uM <4)
[2]
  pEC50: 6.10
  Emax: 143%

## O=C(N[C@H](C(=O)O)c1ccccc1)c1ccc2ccccc2c1OCc1ccc(C(F)(F)F)cc1 [Example 140, (S)-2-phenyl-2-(1-((4-(trifluoromethyl)benzyl)oxy)-2-naphthamido)acetic Acid]
[1]
  TECC24 AUC fold over DMSO @10 μM: C (“C” refers to AUC @10 uM <4)
[2]
  pEC50: 5.24
  Emax: 82.9%

## CC(C)(C)[C@H](NC(=O)c1ccc2c(F)cccc2c1OCc1ccc(OC(F)(F)F)cc1)C(=O)O [Example 221, (2S)-2-[[5-fluoro-1-[[4-(trifluoromethoxy)phenyl]methoxy]naphthalene-2-carbonyl]amino]-3,3-dimethyl-butanoic Acid]
[1]
  TECC24 AUC fold over DMSO @10 μM: A (“A” refers to AUC @10 uM >6)
[2]
  pEC50: 5.92
  Emax: 125%

## CC(C)(SCC1CC1(F)F)[C@H](NC(=O)c1ccc2ccccc2c1OCc1ccc(SC(F)(F)F)cc1)C(=O)O (stereo partly drawn) [Example 164, (2R)-3-(((2,2-difluorocyclopropyl)methyl)thio)-3-methyl-2-(1-((4-((trifluoromethyl)thio)benzyl)oxy)-2-naphthamido)butanoic Acid]
[1]
  TECC24 AUC fold over DMSO @10 μM: C (“C” refers to AUC @10 uM <4)
[2]
  pEC50: 6.22
  Emax: 112%

## O=C(N[C@@H](Cc1ccccc1)C(=O)O)c1ccc2ccccc2c1OCc1cccc(C(F)(F)F)c1 [Example 95, (1-((3-(trifluoromethyl)benzyl)oxy)-2-naphthoyl)-L-phenylalanine]
[1]
  TECC24 AUC fold over DMSO @10 μM: C (“C” refers to AUC @10 uM <4)
[2]
  pEC50: 4.80
  Emax: 29.3%

## CC(C)(SCC1CC1(F)F)[C@H](NC(=O)c1ccc2ccccc2c1OCC1CCCCC1)C(=O)O (stereo partly drawn) [Example 165, (2R)-2-(1-(cyclohexylmethoxy)-2-naphthamido)-3-(((2,2-difluorocyclopropyl)methyl)thio)-3-methylbutanoic Acid]
[1]
  TECC24 AUC fold over DMSO @10 μM: C (“C” refers to AUC @10 uM <4)
[2]
  pEC50: 5.47
  Emax: 113%

## CC(C)(C)[C@H](NC(=O)c1ccc2c(F)cccc2c1OCc1ccc(C(F)(F)F)cc1)C(=O)O [Example 236, (2S)-2-[[5-fluoro-1-[[4-(trifluoromethyl)phenyl]methoxy]naphthalene-2-carbonyl]amino]-3,3-dimethyl-butanoic Acid]
[1]
  TECC24 AUC fold over DMSO @10 μM: B (“B” refers to AUC @10 uM between 4-6)
[2]
  pEC50: 6.00
  Emax: 130%

## CC(C)(C)[C@@H](NC(=O)c1ccc2ccc(C(F)F)cc2c1OCc1ccc(OC(F)(F)F)cc1)C(=O)O [Example 264, (2R)-2-[[7-(difluoromethyl)-1-[[4-(trifluoromethoxy)phenyl]methoxy]naphthalene-2-carbonyl]amino]-3,3-dimethyl-butanoic Acid]
[1]
  TECC24 AUC fold over DMSO @10 μM: B (“B” refers to AUC @10 uM between 4-6)
[2]
  pEC50: 5.74
  Emax: 70.7%

## C[C@H](OC(C)(C)C)C(NC(=O)c1ccc2ccccc2c1OCc1ccc(C(F)(F)F)cc1)C(=O)O (stereo partly drawn) [Example 134, (3S)-3-(tert-butoxy)-2-(1-((4-(trifluoromethyl)benzyl)oxy)-2-naphthamido)butanoic Acid]
[1]
  TECC24 AUC fold over DMSO @10 μM: C (“C” refers to AUC @10 uM <4)
[2]
  pEC50: 6.00
  Emax: 84.9%

## CC(C)(SC1CC2CCC1C2)[C@H](NC(=O)c1ccc2ccccc2c1OCC1CCCCC1)C(=O)O (stereo partly drawn) [Example 175]
[1]
  TECC24 AUC fold over DMSO @10 μM: C (“C” refers to AUC @10 uM <4)
[2]
  pEC50: 5.52
  Emax: 152%
